What was measured:
[1] = test system: Scn1a +/− mice; test: Survival analysis; assay type: in vivo, mouse; settings: for Mice surviving through P30: naïve mice, chow treatment from P18, untreated 67% (14/21)
[2] = test system: Dravet syndrome patients; test: Retrospective chart review of anticonvulsant responses in Dravet syndrome; assay type: in vivo, human; settings: for Effectiveness in Dravet syndrome cohort / Patients with effective response with tolerable side effects: patient or parent‐reported
[3] = test system: Scn1a +/− mice; test: Spontaneous seizure; assay type: in vivo, mouse; settings: for Effect on spontaneous GTCS frequency: subchronic treatment in chow, naïve mice, 60 h recording
[4] = test system: Scn1a +/− mice; test: Hyperthermia‐induced seizures; assay type: in vivo, mouse; settings: for Effect on hyperthermia‐induced seizure response: single‐point ip doses targeting human therapeutic range (Table 1)
[5] = Plasma drug concentration after subchronic oral treatment in chow; settings: for Subchronic treatment plasma concentration: mg/kg chow: carbamazepine 7500, clobazam 160 (NCLB = metabolite after clobazam), lamotrigine 125, levetiracetam 1350, phenobarbital 300, stiripentol 4000, topiramate 850, valproic acid 4500, mean ± SEM, n = 5–8
[6] = Pharmacokinetic analysis of clobazam and stiripentol after a single ip injection; assay type: in vivo, Wild‐type and Scn1a +/− mice
[7] = test system: Scn1a +/− mice; test: Spontaneous GTCS following hyperthermic seizure priming; assay type: in vivo, mouse; settings: hyperthermia‐primed, clobazam 160 mg/kg chow, 60 h P19–P21 (4/16); untreated 61%
[8] = single ip 10 mg/kg clobazam, analyte = labelled substance

SMILES: Nc1nnc(-c2cccc(Cl)c2Cl)c(N)n1 [Lamotrigine]
- Survival through P42 (6‐week survival) ([1]; lamotrigine chow from P18, untreated 68% (15/22)): completely prevented lethality
- Patients with significant worsening of seizures ([2]; Dravet syndrome cohort): approximately 50%
- Patients with significant worsening of seizures (patients/patients trialed) ([2]; Dravet syndrome cohort): 25/50
- Seizures that escalated to tonic hindlimb extension ([3]; naïve cohort, lamotrigine chow, untreated 33% (17/52)): None of the 155 seizures
- Effect on spontaneous GTCS frequency [3]: significantly worsened
- Mice that experienced a hyperthermia‐induced GTCS ([4]; lamotrigine 20 mg/kg ip, 12 mice, vehicle 10 of 12): 12 mice
- Threshold temperature for hyperthermia‐induced GTCS ([4]; lamotrigine 20 mg/kg ip, vehicle C 41.8 ± 0.1): 40.5 ± 0.3 °C
- Effect on hyperthermia‐induced seizure response [4]: significantly worsened

SMILES: NS(=O)(=O)Cc1noc2ccccc12 [Zonisamide]
- Effectiveness in Dravet syndrome cohort [2]: limited effectiveness

SMILES: O=C1CN=C(c2ccccc2Cl)c2cc([N+](=O)[O-])ccc2N1 [clonazepam]
- Patients with effective response with tolerable side effects ([2]; Dravet syndrome cohort): less than 45%

SMILES: NC(=O)N1c2ccccc2CC(=O)c2ccccc21 [oxcarbazepine]
- Patients with significant worsening of seizures ([2]; Dravet syndrome cohort): approximately 50%
- Patients with significant worsening of seizures (patients/patients trialed) ([2]; Dravet syndrome cohort): 28/50

SMILES: CCCC(CCC)C(=O)O [Valproic Acid]
- Patients with effective response with tolerable side effects ([2]; Dravet syndrome cohort): > 50%
- Effect on spontaneous GTCS frequency [3]: did not result in a statistically significant change
- Effect on hyperthermia‐induced seizure response [4]: no effect
- Protection from hyperthermia‐induced GTCS ([4]; valproic acid 100 mg/kg ip): 30%
- Protection from hyperthermia‐induced GTCS ([4]; valproic acid 200 mg/kg ip): 50%
- Protection from hyperthermia‐induced GTCS ([4]; valproic acid 300 mg/kg ip): 100%

SMILES: O=C1CC(=O)N(c2ccccc2)c2cc(Cl)ccc2N1 [NCLB, N‐desmethylclobazam]
- Subchronic treatment plasma concentration [5]: 0.6 ± 0.03 µg/mL
- Cmax in plasma [6, 8]: 3100 ng/mL
- tmax [6, 8]: 1.5 h

SMILES: CN1C(=O)CC(=O)N(c2ccccc2)c2cc(Cl)ccc21 [Clobazam]
- Mice exhibiting spontaneous GTCS [7]: 25%
- Cases with seizure reduction ([2]; Dravet syndrome cohort): ~75%
- Patients with effective response with tolerable side effects ([2]; Dravet syndrome cohort): > 50%
- Subchronic treatment plasma concentration [5]: BQL
- AUC(0-inf) ([6]; mouse, plasma, ip, 10 mg/kg): 2.58 µg·h/mL
- half-life ([6]; mouse, plasma, ip, 10 mg/kg): 0.633 h
- Effect on spontaneous GTCS frequency [3]: did not result in a statistically significant change
- Protection from hyperthermia‐induced GTCS ([4]; clobazam 0.1 mg/kg ip, P14–P16): 37.5%
- Protection from hyperthermia‐induced GTCS ([4]; clobazam 1 mg/kg ip): 50%
- Protection from hyperthermia‐induced GTCS ([4]; clobazam 10 mg/kg ip): Complete protection

SMILES: NC(=O)N1c2ccccc2C=Cc2ccccc21 [Carbamazepine]
- Mice surviving through P30 [1]: 100%
- Patients with significant worsening of seizures ([2]; Dravet syndrome cohort): approximately 50%
- Patients with significant worsening of seizures (patients/patients trialed) ([2]; Dravet syndrome cohort): 16/32
- Effect on hyperthermia‐induced seizure response [4]: no effect

SMILES: CC(C)(C)C(O)/C=C/c1ccc2c(c1)OCO2 (stereo not shown) [Stiripentol]
- Patients with effective response with tolerable side effects ([2]; Dravet syndrome cohort): > 50%
- AUC(0-inf) ([6]; mouse, plasma, ip, 100 mg/kg): 210 µg·h/mL
- Cmax ([6]; mouse, plasma, ip, 100 mg/kg): 46000 ng/mL
- half-life ([6]; mouse, plasma, ip, 100 mg/kg): 2.82 h
- tmax ([6]; mouse, plasma, ip, 100 mg/kg): 1.5 h
- Effect on hyperthermia‐induced seizure response [4]: no effect
- Effect on hyperthermia seizure threshold temperature vs vehicle ([4]; stiripentol 100 mg/kg ip): increased threshold temperature
- Protected from hyperthermia‐induced GTCS ([4]; stiripentol 300 mg/kg ip (3/13)): 23%

SMILES: CC[C@@H](C(N)=O)N1CCCC1=O [Levetiracetam]
- Mice surviving through P30 [1]: 100%
- Effectiveness in Dravet syndrome cohort [2]: limited effectiveness
- Effect on spontaneous GTCS frequency [3]: did not result in a statistically significant change

SMILES: O=C1NC(=O)C(c2ccccc2)(c2ccccc2)N1 [Phenytoin]
- Patients with significant worsening of seizures ([2]; Dravet syndrome cohort): approximately 50%
- Patients with significant worsening of seizures (patients/patients trialed) ([2]; Dravet syndrome cohort): 15/31
- Effect on hyperthermia‐induced seizure response [4]: no effect

SMILES: CCC1(c2ccccc2)C(=O)NC(=O)NC1=O [Phenobarbital]
- Effectiveness in Dravet syndrome cohort [2]: limited effectiveness
- concentration at 24 h ([5]; mouse, plasma, oral, 300 mg per kg of chow, Plasma level, hyperthermia‐primed mice, phenobarbital chow, 24 h post seizure induction, primed): 17800 ± 3200 ng/mL
- Effect on spontaneous GTCS frequency [3]: did not result in a statistically significant change

SMILES: CC1(C)O[C@@H]2[C@@H](CO[C@@]3(COS(N)(=O)=O)OC(C)(C)O[C@@H]23)O1 [Topiramate]
- Mice surviving through P30 [1]: 100%
- Patients with effective response with tolerable side effects ([2]; Dravet syndrome cohort): less than 45%
- Effect on hyperthermia‐induced seizure response [4]: no effect

Reference: PMC5420810 (Annals of Clinical and Translational Neurology, 2017)
